Measurements from patent US20020055528A1, “Artemisinin analogs having antimalarial, antiproliferative, and antitumor activities and chemoselective methods of making the same” (priority 1999, published 2002).

Experiments:
Type in all cases: cell-based
SK-MEL2 = experiment: NCI 60 cell line screen (SRB), Melanoma; settings: PG=0
U251 = experiment: NCI 60 cell line screen (SRB), CNS Cancer; settings: for Log10TGI: PG=0
UACC-257 = experiment: NCI 60 cell line screen (SRB), Melanoma; settings: PG=0
UACC-62 = experiment: NCI 60 cell line screen (SRB), Melanoma; settings: for Log10TGI: PG=0
HCT-116 = experiment: NCI 60 cell line screen (SRB), Colon Cancer; settings: PG=0
RPMI-8226 = experiment: NCI 60 cell line screen (SRB), Leukemia; settings: for Log10TGI: PG=0
ACHN = experiment: NCI 60 cell line screen (SRB), Renal Cancer; settings: PG=0
MDA-MB231/ATCC = experiment: NCI 60 cell line screen (SRB), Breast Cancer; settings: MDA- (first line of MDA-MB231/ATCC); PG=0
MALME-3M = experiment: NCI 60 cell line screen (SRB), Melanoma; settings: for Log10TGI: PG=0; for Log10GI50: Table IV (LC50, PG=−50)
HT29 = experiment: NCI 60 cell line screen (SRB), Colon Cancer
SNB-19 = experiment: NCI 60 cell line screen (SRB), CNS Cancer; settings: PG=0
HL-60(TB) = experiment: NCI 60 cell line screen (SRB), Leukemia; settings: for Log10TGI: PG=0
TK-10 = experiment: NCI 60 cell line screen (SRB), Renal Cancer
IGROVI = experiment: NCI 60 cell line screen (SRB), Ovarian Cancer; settings: for Log10TGI: PG=0
HS 578T = experiment: NCI 60 cell line screen (SRB), Breast Cancer; settings: PG=+50
NCI-H460 = experiment: NCI 60 cell line screen (SRB), Non-Small Cell Lung Cancer; settings: PG=0
CAKI-1 = experiment: NCI 60 cell line screen (SRB), Renal Cancer; settings: Table IV (LC50, PG=−50)

Structure (SMILES)	Log10TGI (U251) [log10M]	Log10GI50 (U251; PG=+50) [log10M]	Log10GI50 (U251; Table IV (LC50, PG=−50)) [log10M]	Log10TGI (UACC-257) [log10M]	Log10TGI (UACC-62) [log10M]	Log10GI50 (UACC-62; PG=+50) [log10M]	Log10GI50 (UACC-62; Table IV (LC50, PG=−50)) [log10M]	Log10TGI (HCT-116) [log10M]	Log10TGI (RPMI-8226) [log10M]	Log10GI50 (RPMI-8226; PG=+50) [log10M]	Log10GI50 (RPMI-8226; Table IV (LC50, PG=−50)) [log10M]	Log10TGI (ACHN) [log10M]	Log10TGI (MDA-MB231/ATCC) [log10M]	Log10TGI (MALME-3M) [log10M]	Log10GI50 (MALME-3M) [log10M]	Log10GI50 (HT29; PG=+50) [log10M]	Log10GI50 (HT29; Table IV (LC50, PG=−50)) [log10M]	Log10TGI (SNB-19) [log10M]	Log10TGI (HL-60(TB)) [log10M]	Log10GI50 (HL-60(TB); PG=+50) [log10M]	further results
C[C@@H]1CC[C@H]2[C@@H](C)C(=O)O[C@@H]3O[C@]4(C)CC[C@@H]1[C@]32OO4 [Artemisinin, artemisinin]	>−4.00	>−4.00	>−4.00	>−4.00	>−4.00	>−4.00	>−4.00	>−4.00	>−4.00	>−4.00	>−4.00	>−4.00	−4.00	−4.06	>−4.00	>−4.00	>−4.00	>−4.00	−4.00	−4.26	Log10TGI (SK-MEL2): >−4.00 log10M; Log10TGI (HT29; PG=0): >−4.00 log10M; Log10GI50 (HL-60(TB); Table IV (LC50, PG=−50)): >−4.00 log10M; Log10TGI (TK-10; PG=0): >−4.00 log10M; Log10GI50 (TK-10; PG=+50): >−4.00 log10M; Log10GI50 (TK-10; Table IV (LC50, PG=−50)): >−4.00 log10M; Log10TGI (IGROVI): >−4.00 log10M; Log10GI50 (IGROVI; PG=+50): −4.31 log10M; Log10GI50 (IGROVI; Table IV (LC50, PG=−50)): >−4.00 log10M
CC(=O)O[C@H]1C(=O)[C@@]2(C)[C@H]([C@H](OC(=O)c3ccccc3)[C@]3(O)C[C@H](OC(=O)[C@H](O)[C@@H](NC(=O)c4ccccc4)c4ccccc4)C(C)=C1C3(C)C)[C@]1(OC(C)=O)CO[C@@H]1C[C@@H]2O [Paclitaxel, paclitaxel, reference compound]	−4.32	−11.29	−4.15	−4.52	−4.71	−10.46	−4.19	−4.82	<-13.00	<−13.00	>−4.00	−4.90	−4.84	−4.46	−4.11	<-13.00	−4.39	>−4.00	−11.57	−11.57	Log10GI50 (HS 578T): <-13.00 log10M; Log10TGI (NCI-H460): −4.46 log10M; Log10GI50 (CAKI-1): >−4.00 log10M; Log10GI50 (HL-60(TB); Table IV (LC50, PG=−50)): >−4.53 log10M; Log10GI50 (TK-10; PG=+50): −7.89 log10M; Log10TGI (IGROVI): −4.19 log10M; Log10GI50 (IGROVI; PG=+50): −8.61 log10M; Log10GI50 (IGROVI; Table IV (LC50, PG=−50)): >−4.00 log10M
